From US12303479B2, “Chloride intracellular channel 1 for regulation of food intake” (The Regents of the University of California, priority 2019, dated 2025)

Columns and labels:
Clic1 [1] = molecular target: T1, Clic1 (Mus musculus, UniProt Q9Z1Q5); experiment: Chronic IAA94 treatment in diet-induced obese mice, 23 days, alone or with Lira; format: in vivo; design: endogenous in cells; host or cells: whole live mice (C57B16 WT in the 7-day study); hypothalamus discussed as the site of action; settings: daily injections, FIG. 8A
Procedure: FIGS. 8A-8I show another study on chronic IAA94 treatment. Diet-induced obese mice (fed a high fat diet for 6 weeks) received daily injections of either i) vehicle, ii) IAA94—10 mg/kg, iii) IAA94—50 mg/kg, iv) Lira, or v) combination of Lira+IAA94 (50 mg/kg). Daily food intake and body weight were monitored. Sacrifices were performed after 23 days.

Clic1 [2] = molecular target: T1, Clic1; experiment: Fasting and re-feeding model: food intake and hypothalamic neuropeptide expression after acute IAA94; format: in vivo, mice; design: endogenous in cells; host or cells: whole live mice (C57B16 WT in the 7-day study); hypothalamus discussed as the site of action
Procedure: To determine whether the modulation of Clic1 directly affected food intake, mice were treated with a specific Clic1 inhibitor, IAA94^11. Mice were fasted for 23 hours and then treated with either vehicle or IAA94 (50 mg/kg IP) and then re-fed for 1 hour. […] No changes in AgRP or Cart expression were detected.
FIGS. 1A-1C show the role of Clic1 in food intake.
FIGS. 5A-5C show acute studies in which Clic1 inhibition decreases food intake. HET/KO mice are viable, fertile and appear normal. Floxed mice are available at PMID: 20049953 Sydney. […] Male mice were injected with IAA94 (50 mg/kg) or vehicle and then refed. IAA94 (indanyloxyacetic acid 94) is a Clic1 inhibitor that blocks channels and has enzymatic properties.

Clic1 [3] = molecular target: T1, Clic1; experiment: Chronic Clic1 inhibition in diet-induced obese high fat diet-fed mice, 7 days; format: in vivo, C57B16 WT mice; design: endogenous in cells; host or cells: whole live mice (C57B16 WT in the 7-day study); hypothalamus discussed as the site of action; settings: IAA94 50 mg/kg IP daily
Procedure: Diet-induced obese mice (fed high fat diet for 6 weeks) were injected with IAA94 (50 mg/kg, IP, daily) or vehicle. Their daily food intake and body weight were monitored. Sacrifices were performed on day 7. […] On day 7 mice were fasted for 5 hours and then treated with IAA94 or VEH and then blood collected one hour later for measurement of leptin (FIG. 7C) GDF-15 (FIG. 7D) insulin (FIG. 7E), and glucose (FIG. 7F). FIGS. 7G-7J show hypothalamic neuropeptide levels determined by quantitative PCR detection. In FIGS. 7A-7B, P<0.05 repeated measures one-way ANOVA with Sidak's multiple comparisons test. In FIGS. 7C-7J, P<0.05 students t-test.

Clic1 [4] = molecular target: Clic1 (Homo sapiens, UniProt O00299); settings: cited from earlier work
[5] = mice fasted 23 hours, IAA94 50 mg/kg IP, re-fed for 1 hour

Row | Structure (SMILES) | weight loss on chronic treatment (Clic1 [1]) | hyperphagia in response to refeeding (Clic1 [2]; IAA94 50 mg/kg, FIG. 1C) | food intake versus amount of IAA94 administered (Clic1 [2]; male mice, fasting and re-feeding model, FIG. 5C) | AgRP expression (hypothalamic) (Clic1 [2]; [5]) | Cart expression (hypothalamic) (Clic1 [2]; [5]) | Pome expression (hypothalamic) (Clic1 [2]; [5]) | hypothalamic levels of Npy (Clic1 [2]; [5]) | reduction of food intake compared with vehicle treated mice (Clic1 [2]; [5]) | food intake (Clic1 [3]; 7 days) | reduction of body weight (Clic1 [3]; one week) | inhibition of Clic1 (Clic1 [4])
1 | C[C@]1(C2CCCC2)Cc2cc(OCC(=O)O)c(Cl)c(Cl)c2C1=O [IAA94, R(+)-[(6,7-Dichloro-2-cyclopentyl-2,3-dihydro-2-methyl-1-oxo-1H-inden-5-yl)-oxy]acetic acid] | significant weight loss | decreased hyperphagia | dose dependent | No changes | No changes | increased | significant reduction | ~50% | significant reduction in food intake | ~12% | –
2 | CN(C)C(=N)NC(=N)N [metformin, N,N-dimethylbiguanide] | – | – | – | – | – | – | – | – | – | – | inhibits Clic1
